Drawing on patent US12398154B2, “Azaquinazoline pan-KRas inhibitors” (Mirati Therapeutics, Inc., priority 2020, dated 2025), this text covers IC50 for 13 compounds.

One assay deals with KRas G12D (Homo sapiens, UniProt P01116, G12D). Nature of the assay: biochemical.
The target of a further assay is KRas G12V (Homo sapiens, UniProt P01116, G12V). Description: biochemical.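 Also: KRas binding measured by TR-FRET displacement at room temperature, IC50 fitted from percent of control values.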
For a further assay, the target named is KRas G12R (Homo sapiens, UniProt P01116, G12R). Description: biochemical.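 Also: TR-FRET displacement assay of compound binding to KRas, read after one hour at room temperature, potency from a four-parameter fit of percent-of-control values.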
A further assay concerns pERK in MKN1 cells. Nature of the assay: Inhibition of KRas phosphorylation of ERK (Cisbio HTRF pERK assay). The note with it: Homo sapiens, MKN-1, 3 h, read-out: Inhibition (HTRF IC50) of KRas-mediated Phosphorylation of ERK, MKN1.
A further assay has as its system pERK in PSN1 cells. Described as above. The note with it: Homo sapiens, PSN1, 3 h, read-out: Inhibition (HTRF IC50) of KRas-mediated Phosphorylation of ERK, PSN1. In general terms: Time-resolved FRET reads energy transfer from a long-lived donor to a nearby acceptor.
The next assay concerns pERK in ASPC1 cells. The description is as above. The note with it: Homo sapiens, ASPC1, read-out: Inhibition (HTRF IC50) of KRas-mediated Phosphorylation of ERK, AsPC-1.
The next assay deals with pERK in HCT116 cells. The assay is described as above. The note with it: Homo sapiens, HCT-116, read-out: Inhibition (HTRF IC50) of KRas-mediated Phosphorylation of ERK, HCT116.
A further assay has as its target KRas G12C (Homo sapiens, UniProt P01116, G12C). Description: biochemical.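 Also: binding to KRas assessed by TR-FRET displacement after one hour incubation at room temperature, potency fitted from percent-of-control values.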
In a further assay the target is KRas WT (Homo sapiens, UniProt P01116). Nature of the assay: biochemical.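 Also: binding to KRas read as TR-FRET displacement after a one-hour room-temperature incubation, IC50 derived from percent-of-control values.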
A further assay concerns pERK in H727 cells. Nature of the assay: Inhibition of KRas phosphorylation of ERK (Cisbio HTRF pERK assay). As to conditions: Homo sapiens, NCI-H727, read-out: Inhibition (HTRF IC50) of KRas-mediated Phosphorylation of ERK, H727.

The structures appear in SMILES notation. pIC50: −log10 of the molar value.

Chain of KRas WT (P01116 1-169 isoform P01116-2): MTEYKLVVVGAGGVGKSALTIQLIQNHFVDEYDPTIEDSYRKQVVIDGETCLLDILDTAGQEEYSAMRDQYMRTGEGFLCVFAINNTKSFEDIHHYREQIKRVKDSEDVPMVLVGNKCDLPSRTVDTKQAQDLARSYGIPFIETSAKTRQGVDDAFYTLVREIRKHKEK
Chain of KRas G12V (P01116 1-169 isoform P01116-2 G12V): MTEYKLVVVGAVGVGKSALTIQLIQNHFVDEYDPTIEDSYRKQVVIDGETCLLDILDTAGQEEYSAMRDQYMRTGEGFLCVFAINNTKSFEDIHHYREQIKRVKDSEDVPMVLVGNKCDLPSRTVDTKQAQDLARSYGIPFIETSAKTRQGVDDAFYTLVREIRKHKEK
Chain of KRas G12C (P01116 1-169 isoform P01116-2 G12C): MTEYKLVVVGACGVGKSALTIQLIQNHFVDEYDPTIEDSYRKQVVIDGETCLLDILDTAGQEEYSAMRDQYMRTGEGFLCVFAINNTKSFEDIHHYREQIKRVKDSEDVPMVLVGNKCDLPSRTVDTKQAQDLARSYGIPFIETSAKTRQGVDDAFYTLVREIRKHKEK
Chain of KRas G12D (P01116 1-169 isoform P01116-2 G12D): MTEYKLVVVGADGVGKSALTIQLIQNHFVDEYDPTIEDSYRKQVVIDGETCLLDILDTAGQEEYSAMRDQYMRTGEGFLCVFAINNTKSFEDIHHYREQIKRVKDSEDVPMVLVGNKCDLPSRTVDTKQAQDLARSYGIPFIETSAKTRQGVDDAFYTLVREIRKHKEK
Chain of KRas G12R (P01116 1-169 isoform P01116-2 G12R): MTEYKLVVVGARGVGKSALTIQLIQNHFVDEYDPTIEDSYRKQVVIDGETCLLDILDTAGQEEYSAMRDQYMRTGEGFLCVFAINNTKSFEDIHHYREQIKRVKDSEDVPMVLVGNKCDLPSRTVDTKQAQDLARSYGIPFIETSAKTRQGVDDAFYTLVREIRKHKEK

As usually defined, the pIC50 is the IC50 on a negative log10 scale, so that one unit is a factor of ten. As for `CCc1c(F)ccc2cc(O)cc(-c3ncc4c(NCC5CC(=O)N5)nc(OC[C@@]56CCCN5C[C@H](F)C6)nc4c3F)c12` (single isomer, unassigned) [Example 373], the pIC50 is 8.30 on KRas G12D; not below 8.70 against KRas G12V; not below 8.70 against KRas G12R; 6.99 in the assay with pERK in MKN1 cells; not above 5.00 in the assay on pERK in PSN1 cells; 5.39 in the assay with pERK in ASPC1 cells. For the same compound, the pIC50 with pERK in HCT116 cells was 5.42.

As to `CCc1c(F)ccc2cc(O)cc(-c3ncc4c(NCC(N)CC(=O)O)nc(OC[C@@]56CCCN5C[C@H](F)C6)nc4c3F)c12` (single isomer, unassigned) [Example 374], the negative logarithm of the IC50 (pIC50) was not below 8.70 at KRas G12D; 8.05 at KRas G12V; 7.82 on KRas G12R; 5.03 in the assay on pERK in ASPC1 cells; not above 5.00 in the assay on pERK in HCT116 cells.

On to `CCc1c(F)ccc2cc(O)cc(-c3ncc4c(N5CCC[C@]6(C5)C[C@](C)(O)C6)nc(OCC56CCCN5CCC6)nc4c3F)c12` [Example 328, trans-6-(7-(8-ethyl-7-fluoro-3-hydroxynaphthalen-1-yl)-8-fluoro-2-((hexahydro-1H-pyrrolizin-7a-yl)methoxy)pyrido[4,3-d]pyrimidin-4-yl)-2-methyl-6-azaspiro[3.5]nonan-2-ol], for which the pIC50 was 8.05 at KRas G12D; 8.22 against KRas G12V; 7.74 at KRas G12R; 8.05 on KRas G12C; 8.05 at KRas WT; 6.57 with pERK in MKN1 cells. Besides, the results for the pIC50 in the assay with pERK in PSN1 cells, in the assay on pERK in ASPC1 cells and in the assay on pERK in HCT116 cells were not above 5.00, 5.76 and 5.89, respectively.

Take `CCc1c(F)ccc2cc(O)cc(-c3ncc4c(N5CCC[C@]6(C5)C[C@@](C)(O)C6)nc(OCC56CCCN5CCC6)nc4c3F)c12` [Example 329, cis-6-(7-(8-ethyl-7-fluoro-3-hydroxynaphthalen-1-yl)-8-fluoro-2-((hexahydro-1H-pyrrolizin-7a-yl)methoxy)pyrido[4,3-d]pyrimidin-4-yl)-2-methyl-6-azaspiro[3.5]nonan-2-ol]: the pIC50 was 5.18 against KRas G12D; 5.75 at KRas G12V; 5.47 at KRas G12R; 5.58 against KRas G12C; 5.99 at KRas WT; not above 5.00 in the assay on pERK in MKN1 cells. Also, the pIC50 is not above 5.00 with pERK in PSN1 cells, not above 4.70 in the assay on pERK in ASPC1 cells and not above 4.70 in the assay with pERK in HCT116 cells.

Turning to `CCc1c(F)ccc2cc(O)cc(-c3ncc4c(NCC5CCC(=O)N5)nc(OC[C@@]56CCCN5C[C@H](F)C6)nc4c3F)c12` (stereo partly drawn) [Example 371, 5-(((7-(8-ethyl-7-fluoro-3-hydroxynaphthalen-1-yl)-8-fluoro-2-(((2R,7aS)-2-fluorohexahydro-1H-pyrrolizin-7a-yl)methoxy)pyrido[4,3-d]pyrimidin-4-yl)amino)methyl)pyrrolidin-2-one], the negative logarithm of the IC50 (pIC50) was 8.15 at KRas G12D; not below 8.70 against KRas G12V; 8.30 at KRas G12R; 6.41 with pERK in MKN1 cells; not above 5.00 with pERK in PSN1 cells; not above 4.70 in the assay with pERK in ASPC1 cells. In the assay with pERK in HCT116 cells, the pIC50 was 5.03.

As to `CCc1c(F)ccc2cc(O)cc(-c3ncc4c(NCCC5CNC(=O)C5)nc(OC[C@@]56CCCN5C[C@H](F)C6)nc4c3F)c12` (stereo partly drawn) [Example 376, 4-(2-((7-(8-ethyl-7-fluoro-3-hydroxynaphthalen-1-yl)-8-fluoro-2-(((2R,7aS)-2-fluorotetrahydro-1H-pyrrolizin-7a(5H)-yl)methoxy)pyrido[4,3-d]pyrimidin-4-yl)amino)ethyl)pyrrolidin-2-one], the pIC50 on KRas G12D is 7.80; against KRas G12V it was 8.52; against KRas G12R, 8.40; in the assay on pERK in ASPC1 cells, not above 5.00; in the assay on pERK in HCT116 cells it was 5.19.

Consider `CCc1c(F)ccc2cc(O)cc(-c3ncc4c(NCCN5CC(=O)NC5=O)nc(OC[C@@]56CCCN5C[C@H](F)C6)nc4c3F)c12` [Example 378, 1-(2-((7-(8-ethyl-7-fluoro-3-hydroxynaphthalen-1-yl)-8-fluoro-2-(((2R,7aS)-2-fluorohexahydro-1H-pyrrolizin-7a-yl)methoxy)pyrido[4,3-d]pyrimidin-4-yl)amino)ethyl)imidazolidine-2,4-dione], for which the pIC50 was 6.98 at KRas G12D; 7.85 against KRas G12V; 7.60 at KRas G12R; not above 5.00 in the assay with pERK in ASPC1 cells; not above 5.00 with pERK in HCT116 cells.

Turning to `CCc1c(F)ccc2cc(O)cc(-c3ncc4c(NCCN5C(=O)CNC5=O)nc(OC[C@@]56CCCN5C[C@H](F)C6)nc4c3F)c12` [Example 379, 3-(2-((7-(8-ethyl-7-fluoro-3-hydroxynaphthalen-1-yl)-8-fluoro-2-(((2R,7aS)-2-fluorohexahydro-1H-pyrrolizin-7a-yl)methoxy)pyrido[4,3-d]pyrimidin-4-yl)amino)ethyl)imidazolidine-2,4-dione], the pIC50 against KRas G12D is 6.95; at KRas G12V it was 7.85; at KRas G12R, 7.47; against KRas G12C, 7.68; at KRas WT, 7.59; with pERK in MKN1 cells, not above 5.00. In addition, the pIC50 with pERK in PSN1 cells was not above 5.00; with pERK in ASPC1 cells, not above 4.70; with pERK in HCT116 cells, not above 4.70.

Regarding `CCc1c(F)ccc2cc(O)cc(-c3ncc4c(N5CCN6C(=O)NCC6C5)nc(OC[C@@]56CCCN5C[C@H](F)C6)nc4c3F)c12` (stereo partly drawn) [Example 380, 7-(7-(8-ethyl-7-fluoro-3-hydroxynaphthalen-1-yl)-8-fluoro-2-(((2R,7aS)-2-fluorohexahydro-1H-pyrrolizin-7a-yl)methoxy)pyrido[4,3-d]pyrimidin-4-yl)hexahydroimidazo[1,5-a]pyrazin-3(2H)-one], the pIC50 is 6.56 at KRas G12D; 7.29 against KRas G12V; 7.15 against KRas G12R; 7.27 at KRas G12C; 7.74 at KRas WT; 5.96 in the assay with pERK in MKN1 cells. Moreover, the negative-log IC50 (pIC50) with pERK in PSN1 cells was not above 5.00; in the assay with pERK in ASPC1 cells, not above 4.70; in the assay on pERK in HCT116 cells it was 5.49.

On to `CCc1c(F)ccc2cc(O)cc(-c3ncc4c(N5CCN6C(=O)NC(=O)C6C5)nc(OC[C@@]56CCCN5C[C@H](F)C6)nc4c3F)c12` (stereo partly drawn) [Example 381, 7-(7-(8-ethyl-7-fluoro-3-hydroxynaphthalen-1-yl)-8-fluoro-2-(((2R,7aS)-2-fluorohexahydro-1H-pyrrolizin-7a-yl)methoxy)pyrido[4,3-d]pyrimidin-4-yl) tetrahydroimidazo[1,5-a]pyrazine-1,3(2H,5H)-dione], for which the pIC50 against KRas G12D was 7.64; at KRas G12V, 7.96; against KRas G12R it was 7.68; against KRas G12C, 7.80; on KRas WT it was 8.30; in the assay with pERK in MKN1 cells it was 6.55. For the same compound, the pIC50 is not above 5.00 in the assay with pERK in PSN1 cells, not above 4.70 in the assay on pERK in ASPC1 cells and 6.13 with pERK in HCT116 cells.

For the compound `CCc1c(F)ccc2cc(O)cc(-c3ncc4c(NCCC5NC(=O)NC5=O)nc(OC[C@@]56CCCN5C[C@H](F)C6)nc4c3F)c12` (stereo partly drawn) [Example 383, 5-(2-((7-(8-ethyl-7-fluoro-3-hydroxynaphthalen-1-yl)-8-fluoro-2-(((2R,7aS)-2-fluorohexahydro-1H-pyrrolizin-7a-yl)methoxy)pyrido[4,3-d]pyrimidin-4-yl)amino)ethyl) imidazolidine-2,4-dione], the negative logarithm of the IC50 (pIC50) at KRas G12D was 7.89; against KRas G12V, 8.52; on KRas G12R, 8.10; with pERK in ASPC1 cells, not above 5.00; in the assay with pERK in HCT116 cells, not above 5.00.

On to `CCc1c(F)ccc2cc(O)cc(-c3ncc4c(N5CCCC6(CC(=O)N6)C5)nc(OCC5(CN(C)C)CC5)nc4c3F)c12` (stereo not drawn) [Example 513, 6-(2-((1-((dimethylamino)methyl)cyclopropyl)methoxy)-7-(8-ethyl-7-fluoro-3-hydroxynaphthalen-1-yl)-8-fluoropyrido[4,3-d]pyrimidin-4-yl)-1,6-diazaspiro[3.5]nonan-2-one], for which the pIC50 was not below 8.70 against KRas G12D; not below 8.70 at KRas G12V; 8.52 against KRas G12R; 6.66 in the assay with pERK in MKN1 cells; not above 5.00 in the assay with pERK in PSN1 cells; 5.88 with pERK in ASPC1 cells. Further, in the assay with pERK in H727 cells, the pIC50 was 6.06.

Take `CN(C)CC1(COc2nc(N3CCC[C@@](C)(O)C3)c3cnc(-c4cc(O)cc(Cl)c4C4CC4)c(F)c3n2)CC1` [Example 517, (R)-1-(7-(3-chloro-2-cyclopropyl-5-hydroxyphenyl)-2-((1-((dimethylamino)methyl)cyclopropyl)methoxy)-8-fluoropyrido[4,3-d]pyrimidin-4-yl)-3-methylpiperidin-3-ol]: the pIC50 on KRas G12D is not below 8.70; at KRas G12V it was 8.52; against KRas G12R it was 8.22; in the assay on pERK in MKN1 cells it was 7.38; in the assay on pERK in PSN1 cells, not above 5.00; in the assay with pERK in ASPC1 cells, 6.69. Besides, in the assay with pERK in H727 cells, the negative-log IC50 (pIC50) is 6.49.
